Experimental findings from patent publication US11220674B2, “Stabilization of dehydrogenases with stable coenzymes” (ROCHE DIABETES CARE, INC., priority 2009, dated 2022) are described below.

For assay [1], the target named is glucose dehydrogenase/NAD system (Bacillus subtilis, UniProt P12310). The assay can be described thus: Photometric glucose determination with GlucDH/NAD, mediator and 2,18-phosphomolybdic acid (reflectance). The conditions noted are these: for reflectance versus glucose concentration: test elements stored at room temperature for 11 weeks, GlucDH, NAD, mediator, 2,18-phosphomolybdic acid; for reflectance of the measured sample: glucose concentration in the region of 800 mg/dl. On the procedure:
To determine glucose, various test systems which included in each case glucose dehydrogenase, NAD, a mediator and, where appropriate, an optical indicator were measured photometrically and electrochemically.
For photometric measurements, initially four test elements which had in each case been stored at room temperature for 11 weeks and comprised 2,18-phosphomolybdic acid, besides glucose dehydrogenase, NAD and a mediator, were investigated with various glucose concentrations.

In assay [2] the target is glucose dehydrogenase (GlucDH), wild-type (Bacillus subtilis, UniProt P12310). The assay can be described thus: Residual activity of GlucDH after dry storage on film with coenzyme. The conditions noted are these: after 5 weeks at 32° C. and 85% relative humidity; versus samples stored in refrigerator with desiccant. The class given is biochemical. On the procedure:
Carba-NAD (FIG. 1A) or NAD were added to the glucose-specific GlucDH. These formulations were in each case applied to Pokalon film (Lonza) and, after drying, stored under warm and moist conditions (32° C., 85% relative humidity). The reaction kinetics and the function plot were subsequently determined at regular intervals. In parallel, at each of the times of measurement a cNAD/NAD analysis and a determination of the residual activity of the enzyme were carried out.
The result of the determination of residual activity of the active GlucDH enzyme after 5 weeks at 32° C. and 85% relative humidity (FIG. 7A) is completely surprising. […] After 24 weeks at 32° C. and 85% relative humidity (FIG. 7B), the residual activity of the enzyme on stabilization with cNAD is still about 25%.

For assay [3], the target named is glucose dehydrogenase (GlucDH) (Bacillus subtilis, UniProt P12310). The assay can be described thus: Stability of GlucDH in liquid phase at 50° C. with coenzyme (residual activity). The class given is biochemical. The procedure:
FIG. 11A is a depiction of the stability of glucose dehydrogenase in the presence of NAD and cNAD, respectively, in liquid phase at 50° C. over a period of 4 days Test conditions: GlucDH 10 mg/ml; NAD and cNAD, respectively, 12 mg/ml; buffer: 0.1 M Tris, 1.2 M NaCl, pH 8.5; temperature 50° C.
FIG. 11B is a depiction of the stability of glucose dehydrogenase in the presence of NAD and cNAD, respectively, in liquid phase at 50° C. over a period of 14 days at the same test conditions as FIG. 11A.
After 95 hours at 50° C., the residual activity of glucose dehydrogenase in the presence of the native coenzyme NAD is ≈5%, whereas the residual activity of GlucDH in the presence of the artificial coenzyme cNAD is 75% (FIG. 11A). After storage at 50° C. for 336 hours, the residual activity of the enzyme stabilized with NAD is now only about 1%; the residual activity of the enzyme stored in the presence of cNAD is observed to be still about 70%.

For assay [4], the target named is T1, alcohol dehydrogenase from yeast (Saccharomyces cerevisiae, UniProt P00330).
T1 sequence (P00330 1-348): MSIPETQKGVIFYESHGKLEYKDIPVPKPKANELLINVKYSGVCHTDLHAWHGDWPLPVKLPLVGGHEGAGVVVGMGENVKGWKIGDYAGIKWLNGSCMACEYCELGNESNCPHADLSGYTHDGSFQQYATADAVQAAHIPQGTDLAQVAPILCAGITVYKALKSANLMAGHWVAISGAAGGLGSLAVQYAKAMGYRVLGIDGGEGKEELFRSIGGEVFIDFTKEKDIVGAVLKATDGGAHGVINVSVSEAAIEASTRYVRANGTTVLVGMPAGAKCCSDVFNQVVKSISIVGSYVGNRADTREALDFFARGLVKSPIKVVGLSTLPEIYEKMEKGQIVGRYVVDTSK
Briefly: Stability of alcohol dehydrogenase in liquid phase at 35° C. with coenzyme (residual activity). The note with it: after 65 hours at 35° C. Format: biochemical. The procedure: FIG. 14 is a depiction of the stability of alcohol dehydrogenase from yeast in the presence of NAD and cNAD, respectively, in liquid phase at 35° C. over a period of 65 hours. Test conditions: ADH 5 mg/ml; NAD and cNAD, respectively, 50 mg/ml; buffer: 75 mM Na4P207, glycine, pH 9.0; temperature 35° C.
cNAD or NAD were added to an alcohol detection solution. These mixtures were stored at 35° C. The stability of the enzyme was then checked at regular intervals, and the residual activity of the enzyme was determined.
After 65 hours at 35° C., the residual activity of alcohol dehydrogenase in the presence of the native coenzyme NAD is about 6%, whereas the residual activity of the enzyme in the presence of the artificial coenzyme cNAD is still about 60%.

glucose dehydrogenase/NAD system, sequence (P12310 whole entry): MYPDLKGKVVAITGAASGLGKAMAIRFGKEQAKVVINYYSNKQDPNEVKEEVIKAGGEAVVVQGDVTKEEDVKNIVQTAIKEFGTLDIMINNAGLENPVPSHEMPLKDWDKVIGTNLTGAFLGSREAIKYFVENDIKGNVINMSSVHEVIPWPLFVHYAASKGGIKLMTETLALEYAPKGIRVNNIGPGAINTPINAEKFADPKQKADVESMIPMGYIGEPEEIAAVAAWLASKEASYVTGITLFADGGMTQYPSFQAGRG
glucose dehydrogenase (GlucDH), sequence (P12310 whole entry): as above
glucose dehydrogenase (GlucDH), wild-type, sequence (P12310 whole entry): as above

As to `C[n+]1cccc2c1-c1ncccc1C(=O)C2=O.O=S(=O)([O-])C(F)(F)F` [Med B, 1-methyl-5,6-dioxo-5,6-dihydro-1, 10-phenanthrolinium trifluoromethanesulfonate], in assay [1], the “reflectance versus glucose concentration” value was “a fall in the reflectance was observed with increasing glucose concentration”.
On to `NC(=O)c1ccc[n+]([C@@H]2O[C@H](COP(=O)([O-])OP(=O)(O)OC[C@H]3O[C@@H](n4cnc5c(N)ncnc54)[C@H](O)[C@@H]3O)[C@@H](O)[C@H]2O)c1` [NAD, nicotinamide adenine dinucleotide, reference compound], for which the “residual activity of GlucDH enzyme” value in assay [2] worked out at 0.5%. Moreover, the results for the “residual activity of glucose dehydrogenase” value in assay [3] (after 95 hours at 50° C.) and in assay [3] (storage at 50° C. for 336 hours) were “≈ 5%” and “about 1%”, respectively. In assay [4], the “residual activity of alcohol dehydrogenase” value is on record as “about 6%”.
As for `C[n+]1cccc2c1C(=O)C(=O)c1cccnc1-2.O=S(=O)([O-])C(F)(F)F` [Med F, 7-methyl-5,6-dioxo-5,6-dihydro-1,7-phenanthrolinium trifluoromethanesulfonate], in assay [1], the “reflectance versus glucose concentration” value is given as “a fall in the reflectance was observed with increasing glucose concentration”.
As to `CC[n+]1c2ccccc2nc2c(OCCCC(=O)O)cccc21.O=S(=O)([O-])C(F)(F)F` [Med G, 1-(3-carboxypropoxy)-5-ethylphenazinium trifluoromethanesulfonate], in assay [1], the “reflectance of the measured sample” value is reported as “about 20%” and the “reflectance versus glucose concentration” value is “a fall in the reflectance was observed with increasing glucose concentration”.
The corresponding values for `Cl.O=Nc1ccc(N(CO)CO)cc1` [Med A, [(4-nitrosophenyl)imino]dimethanol hydrochloride] are “about 20%” and “a fall in the reflectance was observed with increasing glucose concentration”.
